# According to doi:10.1101/705459v3 (bioRxiv, 2019):
# “Also recorded” adds a separate entry of the source. Peptide text beside a SMILES is read from it.
# Tests used:
# CMG2 = CMG2 (Homo sapiens, UniProt P58335, C175A/R40C); experiment: biochemical; format: binding; conditions: for koff: read-out: off-rate / koff (BLI)
# EOMA cells [1] = format: cell-based, murine
# EA.hy926 cells = format: cell-based, human
# TEM8 = TEM8 (Homo sapiens, UniProt Q9H6X2); format: binding; conditions: 250nM mCitrine-TEM8, 325nM PA-546; S16 313 nM to 40 μM
# EOMA cells [2] = format: cell-based, murine; conditions: n=3
# CMG2, sequence (P58335 40-217 R40C/C175A limits assumed): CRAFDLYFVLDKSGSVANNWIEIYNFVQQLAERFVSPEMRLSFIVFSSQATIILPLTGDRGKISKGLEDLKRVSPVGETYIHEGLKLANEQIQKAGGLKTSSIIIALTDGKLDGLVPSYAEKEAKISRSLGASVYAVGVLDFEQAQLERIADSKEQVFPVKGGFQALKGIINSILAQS
# TEM8, sequence (Q9H6X2 44-215 limits assumed): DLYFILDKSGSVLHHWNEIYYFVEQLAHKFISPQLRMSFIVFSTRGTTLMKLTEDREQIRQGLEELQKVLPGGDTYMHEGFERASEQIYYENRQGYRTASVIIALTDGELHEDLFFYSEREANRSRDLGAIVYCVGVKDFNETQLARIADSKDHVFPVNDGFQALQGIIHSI
Compound,"S16 binding to CMG2 in EDTA (BLI) (CMG2; 10 mM EDTA instead of 2 mM CaCl2 and 1 mM MgCl2, 10 µM S16, n=3)",on-rate (BLI) (CMG2; 1:1 model),binding on BLI of S16 prepared to encourage monomerization (CMG2; S16 prepared in a fashion that encourages monomerization),koff (CMG2) [s⁻¹],"S16 binding to CMG2 sensors treated with PA before S16 (BLI) (CMG2; sensors equilibrated with 500 nM PA, then 10 µM S16, n=3)",proliferation relative to untreated control (EOMA cells [1]),reduction of migration toward serum (EA.hy926 cells),inhibition of TEM8-PA FRET (TEM8),reduction in wound closure (EOMA cells [2]) [%],kon (BLI) (CMG2; representative fit) [M/s],"binding of CMG2 (BLI), in words (CMG2; concentrations up to 30 μM, 3 independent experiments, no binding model fits)",directional migration versus vehicle (EA.hy926 cells)
CC[C@H](C)[C@H](NC(=O)[C@H](C)NC(=O)[C@@H](NC(=O)[C@H](C)NC(=O)[C@@H]1CCCN1)[C@@H](C)CC)C(=O)N[C@@H](C)C(=O)N[C@H](C(=O)N[C@@H](Cc1c[nH]cn1)C(=O)N[C@@H](CO)C(=O)N[C@@H](CCC(N)=O)C(=O)N[C@@H](CC(=O)O)C(=O)N[C@H](C(=O)N[C@@H](CO)C(=O)N[C@H](C(=O)N1CCC[C@H]1C(=O)O)[C@@H](C)CC)C(C)C)C(C)C [Peptide S16] (H-PAIAIAVHSQDVSIP-OH; N-terminus and C-terminus assumed),prevents S16 binding,≈ 2 × 10^2 M^−1s^−1,binding is not observed,~0.0001,reduced,no change in proliferation,~ 90%,negligible; also recorded: unable to compete,60,,,
CC[C@H](C)[C@H](NC(=O)[C@H](CO)NC(=O)[C@@H](N)C(C)C)C(=O)NCC(=O)N[C@@H](Cc1ccc(O)cc1)C(=O)N[C@@H](CC(C)C)C(=O)N[C@@H](CC(C)C)C(=O)N[C@H](C(=O)N[C@@H](CCCCN)C(=O)N[C@@H](Cc1c[nH]cn1)C(=O)N[C@@H](CO)C(=O)N[C@@H](CCC(N)=O)C(=O)N[C@H](C(=O)N[C@@H](CC(=O)O)C(=O)N[C@@H](CCC(N)=O)C(=O)O)[C@@H](C)O)C(C)C [Peptide U12] (H-VSIGYLLVKHSQTDQ-OH; N-terminus and C-terminus assumed),,,,0.0125 ± 0.0002,,,,,,150 ± 10,,
"SPIAVDVQSAPIHAI [scrambled S16, reference compound]",,,,,,,,,,,minimal binding,no significant difference
